{
  "source": "patent US7659273B2",
  "about": "“Composition for accelerating bone fracture healing” (Mitsubishi Tanabe Pharma Corporation, priority 2001, dated 2010)",
  "key": {"fibula fracture region": {"test_system": "fibula fracture region", "assay": "Acceleration of fracture healing in normal rat, Compound (1) microspheres (Experimental Example 1)", "type": "in vivo", "settings": "normal rats, Example 2-(1) microspheres, 6 weeks after suturing; for Fibula Bone Mineral Density: at cutting site; for Fibula Bone Mineral Density / Fibula Bone Mineral Content: DXA at fracture region; for Breaking Energy / Breaking force: three-point bending test", "experimental": "CD (SD) IGS rats (Charles River Japan, Inc.; male; 7-week-old) were housed for seven days at room temperature (23±2° C.) and 40-70% humidity. During the housing period, the rats were free to access commercially available food (from Oriental Bio; CE-2).\nUnder ether anesthesia, the left-lower legs of rats were shaved and sterilized with 70% aqueous ethanol, fibulas were exposed with scissors and cut with nail scissors (Natsume Seisakusyo; B17). The cut sections of the fibula were re-matched with tweezers. For the test groups (20 rats/group), the drug-containing microspheres prepared in Example 2-(1), which contains 0.1 or 0.5 mg of Compound (1), were placed around the cutting site of each rat using spatula followed by suturing with silk thread. For the control group (20 rats/group), the same amount of drug-free microspheres prepared in Control Example 1-(1) were placed around the cutting site using spatula followed by suturing with silk thread. Following the suturing, animals of every group were sterilized with 70% aqueous ethanol. At six weeks after the suturing, under ether anesthesia, 10 rats from each group were sacrificed by laparotomy with bleeding and the fibulas were excised.\nThe fibula excised at 6 weeks after suturing was subjected to DXA bone densitometer (Aloka; DCS-600) to determine bone mineral density and bone mineral content at fracture region (scanning width: 1 mm).\nThe volume of fibula excised 6 weeks after suturing was determined using Plethysmometer (Muromachi Kikai Co., Ltd.; TK-101).\nThe fibula excised at 6 weeks after suturing was subjected to a three-point bending test with bone strength tester (from Muromachi Kikai Co., Ltd.; TK-252C) to determine bone strength. Briefly, the fibula was supported by two supports apart from each other by 8 mm and the cut section was positioned at the middle of these supports, i.e., 4 mm apart from the respective two supports. Loading (3 mm/minute) from upper direction was kept on the middle point (fracture section) of fibula until fibula begins to fracture. The maximum pressure necessary to break the bone was defined as the breaking force and the total energy spent to break the bone was defined as the breaking energy."}, "[1]": {"test_system": "rabbit costicartilage cells", "assay": "Cartilage matrix (proteoglycan) production, Alcian blue staining (Experimental Examples 3 and 4)", "type": "cell-based", "settings": "summary of Tables 10 and 11", "from_the_text": "Costicartilages were isolated from NZ line rabbit (Kitayama Labes., Co Ltd.; male; 4-week-old) and soaked into Hank's balanced salt solution (calcium- and magnesium-free; LifeTech Co., Ltd.; hereinafter, referred to as “HBSS”). One costicartilage and one costa were excised together, the adipose tissue and the muscle tissue were removed and then, the proliferating chondrocyte layer of costicartilage was excised. The collected proliferating chondrocyte layer was cut into sections with a surgical knife (FEATHER Safety Razor Co., Ltd.) and the all proliferating chondrocyte layer sections from 4 rabbits were combined in a centrifuge tube. To the centrifuge tube was added 40 ml of HBSS (pH 7.2) supplied with 0.1% tetrasodium ethylenediamine tetraacetate to obtain suspension of the proliferating chondrocyte layer sections, which was shaken at 37° C. for 20 minutes and centrifuged (1500 rpm, 10 minutes). The supernatant was aspirated off, and 40 ml of HBSS (pH 7.2) supplied with 0.2% trypsin was added to the tube to suspend the precipitates and shaken at 37° C. for 1 hour. The tube was centrifuged (1500 rpm, 10 minutes), and the supernatant was aspirated off. The precipitates were washed twice with HBSS, suspended in 100 ml of HBSS supplied with 0.1% collagenase (Wako Pure Chemical Industries, Ltd., 034-10533) and shaken at 37° C. for 3 hours. The content of the tube was passed through the Cell Strainer (pore size 40 μm) and the filtrate was divided into four centrifuge tubes. To each of all four tubes was added 40 ml of medium (α-MEM, LifeTech Co., Ltd.), and the tubes were centrifuged (1500 rpm, 10 minutes). The supernatant was aspirated off, and the resultant precipitates were collected in one tube with Pipetman. After addition of 40 ml of the same medium, the tube was re-centrifuged (1500 rpm, 10 minutes). Washing procedure comprising addition of medium followed by centrifugation was repeated additional three times. The precipitates were suspended in the same medium to give an about 5 ml suspension, and the cell number was counted.\nThe suspension of costicartilage cell described above was added to 24-well plate at 50,000 cells per well (day 1). […]\nAfter removing the medium, cells in each well were fixed by addition of 1 ml of neutral buffer containing 4% paraformaldehyde and incubation for 30 minutes at room temperature. […] Absorbance at 620 nm was measured, and cartilage matrix amount (proteoglycan production amount) in each well was estimated, and proteoglycan production rate (%) of each test compound for vehicle (100%) was calculated.\nThe cartilage matrix (proteoglycan) production was determined using other compounds (compounds (52)-(55) and Compound (2) for comparison) in exactly the same manner as Experimental Example 3 above."}, "[2]": {"test_system": "cultured rabbit costicartilage cells", "assay": "Calcification of chondrocyte (Experimental Example 5)", "type": "cell-based", "settings": "10^−4 M; 4 week cultivation; silver nitrate and Alizarin Red staining; FIG. 1", "from_the_text": "Costicartilages were isolated from NZ line rabbit (Kitayama Labes., Co Ltd.; male; 4-week-old) and soaked into Hank's balanced salt solution (calcium- and magnesium-free; LifeTech Co., Ltd.; hereinafter, referred to as “HBSS”). One costicartilage and one costa were excised together, the adipose tissue and the muscle tissue were removed and then, the proliferating chondrocyte layer of costicartilage was excised. The collected proliferating chondrocyte layer was cut into sections with a surgical knife (FEATHER Safety Razor Co., Ltd.) and the all proliferating chondrocyte layer sections from 4 rabbits were combined in a centrifuge tube. To the centrifuge tube was added 40 ml of HBSS (pH 7.2) supplied with 0.1% tetrasodium ethylenediamine tetraacetate to obtain suspension of the proliferating chondrocyte layer sections, which was shaken at 37° C. for 20 minutes and centrifuged (1500 rpm, 10 minutes). The supernatant was aspirated off, and 40 ml of HBSS (pH 7.2) supplied with 0.2% trypsin was added to the tube to suspend the precipitates and shaken at 37° C. for 1 hour. The tube was centrifuged (1500 rpm, 10 minutes), and the supernatant was aspirated off. […] The precipitates were suspended in the same medium to give an about 5 ml suspension, and the cell number was counted. […]"}, "[3]": {"test_system": "backbone, femur and cortical bone of mouse", "settings": "daily subcutaneous injection; cited from earlier work"}},
  "data": [
    {"smiles": "CCOc1cc2cc(CO)c(CO)c(-c3ccn(CCOC)c(=O)c3)c2cc1OCC", "note": "[Compound (1)]", "values": [
      {"measurement": "Fibula Bone Mineral Density", "setting": "fibula fracture region; drug content 0.1 mg", "value": "36.77 ± 1.52", "unit": "mg/cm^2"},
      {"measurement": "Fibula Bone Volume", "setting": "fibula fracture region; drug content 0.1 mg", "value": "68.1 ± 2.9", "unit": "µL"},
      {"measurement": "Fibula Bone Mineral Content", "setting": "fibula fracture region; drug content 0.1 mg", "value": "14.27 ± 0.76", "unit": "mg"},
      {"measurement": "Breaking Energy", "setting": "fibula fracture region; drug content 0.1 mg", "value": "4.37 ± 0.71", "unit": "mJ"},
      {"measurement": "Breaking force", "setting": "fibula fracture region; drug content 0.1 mg", "value": "19.8 ± 2.14", "unit": "N"},
      {"measurement": "Fibula Bone Mineral Density", "setting": "fibula fracture region; drug content 0.5 mg", "value": "40.05 ± 1.34", "unit": "mg/cm^2"},
      {"measurement": "Fibula Bone Volume", "setting": "fibula fracture region; drug content 0.5 mg", "value": "77.2 ± 2.9", "unit": "µL"},
      {"measurement": "Fibula Bone Mineral Content", "setting": "fibula fracture region; drug content 0.5 mg", "value": "15.20 ± 0.82", "unit": "mg"},
      {"measurement": "Breaking Energy", "setting": "fibula fracture region; drug content 0.5 mg", "value": "6.44 ± 1.06", "unit": "mJ"},
      {"measurement": "Breaking force", "setting": "fibula fracture region; drug content 0.5 mg", "value": "23.0 ± 1.68", "unit": "N"},
      {"measurement": "cartilage matrix (proteoglycan) production promoting effect (in words)", "setting": "[1]", "value": "remarkable matrix production promoting effect"},
      {"measurement": "calcium deposition / calcification enhancement", "setting": "[2]", "value": "calcium deposition was clearly observed"}
    ]},
    {"smiles": "COc1cc2c(cc1OC)C(c1ccnc(-n3ccc4c(OCCN5CCOCC5)cccc4c3=O)c1)=N[C@H](CO)C2", "note": "[Compound (52)]", "values": [
      {"measurement": "cartilage matrix (proteoglycan) production promoting effect (in words)", "setting": "[1]", "value": "remarkable matrix production promoting effect"}
    ]},
    {"smiles": "COc1cc2cc(CO)nc(-c3ccnc(-n4nc(-c5nccs5)c5ccccc5c4=O)c3)c2cc1OC", "note": "[Compound (53)]", "values": [
      {"measurement": "cartilage matrix (proteoglycan) production promoting effect (in words)", "setting": "[1]", "value": "remarkable matrix production promoting effect"}
    ]},
    {"smiles": "CC(=O)CCCCn1c(=O)c2c(ncn2C)n(C)c1=O", "note": "[Pentoxifylline]", "values": [
      {"measurement": "bone mineral density of the backbone and the femur", "setting": "[3]", "value": "increase of bone mineral density of the backbone and the femur"},
      {"measurement": "hyperplasia of cortical bone", "setting": "[3]", "value": "hyperplasia of cortical bone"}
    ]},
    {"smiles": "COc1ccc(C2CNC(=O)C2)cc1OC1CCCC1", "note": "(stereo not drawn) [Rolipram]", "values": [
      {"measurement": "bone mineral density of the backbone and the femur", "setting": "[3]", "value": "increase of bone mineral density of the backbone and the femur"},
      {"measurement": "hyperplasia of cortical bone", "setting": "[3]", "value": "hyperplasia of cortical bone"}
    ]}
  ]
}
